Results as given in PMC3375359 (Journal of Medicinal Chemistry, 2012).

Biological target: human μ opioid receptor (Homo sapiens, UniProt P35372)
Assay: [35S]GTPγS binding mediated by the mu opioid receptor
Assay type: biochemical
Details: [35S]GTPγS binding assay, in words

human μ opioid receptor, sequence (P35372 whole entry): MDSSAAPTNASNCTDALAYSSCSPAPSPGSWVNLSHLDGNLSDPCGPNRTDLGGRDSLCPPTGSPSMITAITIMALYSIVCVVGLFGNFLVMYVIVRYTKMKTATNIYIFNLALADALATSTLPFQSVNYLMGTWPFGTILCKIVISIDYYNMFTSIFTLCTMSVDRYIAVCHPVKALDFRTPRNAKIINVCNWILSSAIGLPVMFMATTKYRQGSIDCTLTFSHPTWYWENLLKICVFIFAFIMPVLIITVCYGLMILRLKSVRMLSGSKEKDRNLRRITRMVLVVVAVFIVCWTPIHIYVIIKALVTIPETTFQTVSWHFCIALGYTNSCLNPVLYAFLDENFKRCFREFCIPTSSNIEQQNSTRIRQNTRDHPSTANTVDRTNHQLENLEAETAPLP

Row | SMILES | functional activity at MOR (agonist character)
1 | CN1CC[C@]23CCCC[C@H]2[C@H]1Cc1ccc(NCc2cccc(O)c2)cc13 [Compound 4g] | full agonist
2 | CN1CC[C@]23c4c5ccc(NCc6cccc(O)c6)c4O[C@H]2[C@@H](O)C=C[C@H]3[C@H]1C5 [Compound 12b, 3-(3′-hydroxybenzyl)amino-7,8-didehydro-4,5-epoxy-17-methyl-(5α,6α)-morphinan-6-ol] | full agonists

Biological target: human KOR (Homo sapiens, UniProt P41145)
Assay: not given
Details: from binding affinities

human KOR, sequence (P41145 whole entry): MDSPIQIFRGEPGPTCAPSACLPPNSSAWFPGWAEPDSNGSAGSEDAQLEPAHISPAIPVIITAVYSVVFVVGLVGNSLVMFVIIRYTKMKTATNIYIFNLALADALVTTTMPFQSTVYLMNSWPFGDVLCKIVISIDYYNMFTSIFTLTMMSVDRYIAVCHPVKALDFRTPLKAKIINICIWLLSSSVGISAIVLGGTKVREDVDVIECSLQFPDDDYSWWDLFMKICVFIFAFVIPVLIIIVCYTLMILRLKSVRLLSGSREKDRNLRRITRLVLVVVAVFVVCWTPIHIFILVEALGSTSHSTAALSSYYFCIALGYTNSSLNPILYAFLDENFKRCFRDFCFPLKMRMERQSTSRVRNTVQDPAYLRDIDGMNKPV

Row | SMILES | selectivity KOR over the DORs
3 | Oc1cccc(CNc2ccc3c(c2)C[C@@H]2[C@@H]4CCCC[C@]34CCN2CC2CC2)c1 [Compound 17, 2-(3′-Hydroxybenzyl)amino-17-cyclopropylmethylmorphinan] | > 10,000 fold

Biological target: T1, human MOR (Homo sapiens, UniProt P35372)
Assay: not given
Assay type: binding
Details: not given

T1 sequence (P35372 whole entry): as the sequence (P35372 whole entry) above

Row | SMILES | Selectivity MOR/KOR/DOR
4 | Nc1ccc2c(c1)[C@@]13CCCC[C@H]1[C@@H](C2)N(CC1CC1)CC3 [Compound 2c] | 7/1/830
5 | COc1ccccc1CNc1ccc2c(c1)[C@@]13CCCC[C@H]1[C@@H](C2)N(CC1CCC1)CC3 [Compound 3a, (−)-17-(cyclobutylmethyl)-N-(2-methoxybenzyl)-morphinan-3-amine] | 1/1/28
6 | COc1cccc(CNc2ccc3c(c2)[C@@]24CCCC[C@H]2[C@@H](C3)N(CC2CCC2)CC4)c1 [Compound 3b, (−)-17-(cyclobutylmethyl)-N-(3-methoxybenzyl)-morphinan-3-amine] | 1/5/220
7 | Clc1ccc(CNc2ccc3c(c2)[C@@]24CCCC[C@H]2[C@@H](C3)N(CC2CCC2)CC4)cc1 [Compound 3d, (−)-17-(cyclobutylmethyl)-N-(4-chlorobenzyl)-morphinan-3-amine] | 1/3/59
8 | COc1ccccc1CNc1ccc2c(c1)[C@@]13CCCC[C@H]1[C@@H](C2)N(CC1CC1)CC3 [Compound 3f, (−)-17-(cyclopropylmethyl)-N-(2-methoxybenzyl)-morphinan-3-amine] | 1/1/130
9 | COc1cccc(CNc2ccc3c(c2)[C@@]24CCCC[C@H]2[C@@H](C3)N(CC2CC2)CC4)c1 [Compound 3g, (−)-17-(cyclopropylmethyl)-N-(3-methoxybenzyl)-morphinan-3-amine] | 1/3/220
10 | Oc1ccccc1CNc1ccc2c(c1)[C@@]13CCCC[C@H]1[C@@H](C2)N(CC1CCC1)CC3 [Compound 4a, (−)-17-(cyclobutylmethyl)-N-(2-hydroxybenzyl)-morphinan-3-amine] | 1/1/65
11 | Oc1cccc(CNc2ccc3c(c2)[C@@]24CCCC[C@H]2[C@@H](C3)N(CC2CCC2)CC4)c1 [Compound 4b, (−)-17-(cyclobutylmethyl)-N-(3-hydroxybenzyl)-morphinan-3-amine] | 1/6/720
12 | Oc1ccccc1CNc1ccc2c(c1)[C@@]13CCCC[C@H]1[C@@H](C2)N(CC1CC1)CC3 [Compound 4d, (−)-17-(cyclopropylmethyl)-N-(2-hydroxybenzyl)morphinan-3-amine] | 10/1/150
13 | COc1ccccc1CN(C)c1ccc2c(c1)[C@@]13CCCC[C@H]1[C@@H](C2)N(CC1CCC1)CC3 [Compound 5a, (−)-17-(cyclobutylmethyl)-N-methyl-N-(2-methoxybenzyl)-morphinan-3-amine] | 1/1/14
14 | COc1cccc(CN(C)c2ccc3c(c2)[C@@]24CCCC[C@H]2[C@@H](C3)N(CC2CCC2)CC4)c1 [Compound 5b] | 1/2/27

Same assay, conditions: Table 1; ratio of Ki values

Row | SMILES | Selectivity MOR/KOR/DOR
15 | COc1ccc(CNc2ccc3c(c2)[C@@]24CCCC[C@H]2[C@@H](C3)N(CC2CCC2)CC4)cc1 [Compound 3c, (−)-17-(cyclobutylmethyl)-N-(4-methoxybenzyl)-morphinan-3-amine] | 1/5/300
16 | c1cc2c(cc1CNc1ccc3c(c1)[C@@]14CCCC[C@H]1[C@@H](C3)N(CC1CCC1)CC4)OCO2 [Compound 3e, (−)-17-(cyclobutylmethyl)-N-(3,4-methylenedioxybenzyl)morphinan-3-amine] | 1/3/160
17 | COc1ccc(CNc2ccc3c(c2)[C@@]24CCCC[C@H]2[C@@H](C3)N(CC2CC2)CC4)cc1 [Compound 3h, (−)-17-(cyclopropylmethyl)-N-(4-methoxybenzyl)-morphinan-3-amine] | 1/2/65
18 | c1cc2c(cc1CNc1ccc3c(c1)[C@@]14CCCC[C@H]1[C@@H](C3)N(CC1CC1)CC4)OCO2 [Compound 3i, (−)-17-(cyclopropylmethyl)-N-(3,4-methylenedihydroxybenzyl)-morphinan-3-amine] | 1/3/120
19 | O=[N+]([O-])c1cccc(CNc2ccc3c(c2)[C@@]24CCCC[C@H]2[C@@H](C3)N(CC2CCC2)CC4)c1 [Compound 3k, (−)-3-(3′-nitrobenzyl)amino-17-cyclobutylmethylmorphinan] | 1/3/350
20 | Oc1ccc(CNc2ccc3c(c2)[C@@]24CCCC[C@H]2[C@@H](C3)N(CC2CCC2)CC4)cc1 [Compound 4c, (−)-17-(cyclobutylmethyl)-N-(4-hydroxybenzyl)morphinan-3-amine] | 1/7/340
21 | Oc1cccc(CNc2ccc3c(c2)[C@@]24CCCC[C@H]2[C@@H](C3)N(CC2CC2)CC4)c1 [Compound 4e, (−)-17-(cyclopropylmethyl)-N-(3-hydroxybenzyl)-morphinan-3-amine] | 1/2/260
22 | Oc1ccc(CNc2ccc3c(c2)[C@@]24CCCC[C@H]2[C@@H](C3)N(CC2CC2)CC4)cc1 [Compound 4f, (−)-17-(cyclopropylmethyl)-N-(4-hydroxybenzyl)-morphinan-3-amine] | 1/1/44
23 | CN1CC[C@]23CCCC[C@H]2[C@H]1Cc1ccc(NCc2cccc(O)c2)cc13 [Compound 4g] | 1/24/1700
24 | COc1ccc(CN(C)c2ccc3c(c2)[C@@]24CCCC[C@H]2[C@@H](C3)N(CC2CCC2)CC4)cc1 [Compound 5c, (−)-17-(cyclobutylmethyl)-N-methyl-N-(4-methyloxybenzyl)-morphinan-3-amine] | 1/1/34
25 | CN(Cc1ccc(Cl)cc1)c1ccc2c(c1)[C@@]13CCCC[C@H]1[C@@H](C2)N(CC1CCC1)CC3 [Compound 5d, (−)-17-(cyclobutylmethyl)-N-methyl-N-(4-chlorobenzyl)-morphinan-3-amine] | 1/1/28
26 | CN(Cc1cccc(O)c1)c1ccc2c(c1)[C@@]13CCCC[C@H]1[C@@H](C2)N(CC1CCC1)CC3 [Compound 6b] | 1/1/10
27 | CN(Cc1ccc(O)cc1)c1ccc2c(c1)[C@@]13CCCC[C@H]1[C@@H](C2)N(CC1CCC1)CC3 [Compound 6c, (−)-17-(cyclobutylmethyl)-N-methyl-N-(4-hydroxybenzyl)-morphinan-3-amine] | 1/1/170

Same assay, conditions: from binding affinities

Row | SMILES | selectivity MOR to DOR
28 | CN1CC[C@]23CCCC[C@H]2[C@H]1Cc1ccc(NCc2cccc(O)c2)cc13 [Compound 4g] | ~2000 fold

Biological target: T1, human MOR
Assay: not given
Details: Table 1; ratio of Ki values; cited from earlier work

Row | SMILES | Selectivity MOR/KOR/DOR
29 | CN1CC[C@]23CCCC[C@H]2[C@H]1Cc1ccc(N)cc13 [Compound 2a] | 1/14/190
30 | Nc1ccc2c(c1)[C@@]13CCCC[C@H]1[C@@H](C2)N(CC1CCC1)CC3 [Compound 2b] | 2/1/100
31 | c1ccc(CNc2ccc3c(c2)[C@@]24CCCC[C@H]2[C@@H](C3)N(CC2CC2)CC4)cc1 [Compound 8a, reference compound] | 1/1/112
32 | c1ccc(CNc2ccc3c(c2)[C@@]24CCCC[C@H]2[C@@H](C3)N(CC2CCC2)CC4)cc1 [Compound 8d, reference compound] | 1/2/76
